Data set [1] relates to CD31 endothelial marker in tumors. Briefly: Tumor vascularization, CD31 immunohistochemistry. The data set is classed as in vivo, mouse. The settings on record: CD31 staining; HB-19 5 mg/kg or 5-FU 40 mg/kg, intraperitoneal, 8 weeks; compared to untreated tumors. As for the experimental part:
Figure 9 Reduced density of blood vessels in HB-19 treated tumor-bearing mice. Sections of tumors recovered from mice, untreated control and treated with either HB-19 or 5-FU (experiment described in Figure 8B) were stained with antibodies against the CD31 endothelial marker and analyzed by fluorescence microscopy. […] Angiogenesis was quantified by image analysis of CD31-labeled endothelial cells.
Immediately after surgical resection, tumors, were frozen in liquid nitrogen and fixed for 20 min in acetone at 4°C or fixed with 4% PFA for paraffin inclusion. The sections of 8 µm were re-hydrated and saturated in PBS containing 1% BSA and 2% normal goat serum. To visualize tumor endothelial cells, sections were incubated with a Rat anti-mouse CD31 monoclonal antibody (1∶50) in saturation buffer 1 hour at room temperature. After two washes in PBS, sections were incubated for 1 hour at room temperature with biotinylated goat anti-Rat IgG (1∶1000 dilution; Chemicon International Inc., Temecula, CA) in saturation buffer, followed by three washes in PBS and incubation with the avidin-biotinylated-alkaline phosphatase complex (Vector Laboratories). […] Angiogenesis was quantified by Image analysis of CD31-labeled endothelial cells. The EC density in each field was expressed as the ratio of EC area/total area examined ×100 (%). […]

The test system of the next data set is MDA-MB-231 cells. Description: HB-19 entry in MDA-MB-231 cells, immunofluorescence. The settings on record: 5 µM HB-19/Btn, 1 hour. The data set is classed as cell-based, human.
Data set [2] is described as follows: Blood cell count in tumor bearing mice. The data set is classed as in vivo, mouse. The following applies: 3 times/week, 8 weeks. Here is the method: Figure 8 HB-19 inhibits tumor growth in the nude mice. (A) HB-19 inhibits the growth of MDA-MB-231 tumor-cell xenografts. Cells (2×10^6) were injected subcutaneously into the right flank of female nude mice. Two weeks later, mice with a palpable tumor of approximately 40 mm^3 in volume were randomly separated into three groups (n = 5) and were given peritumoral injections 3 times/week of 0.1 ml PBS alone (Control), HB-19 (5 mg/kg), or Tamoxifen (Tmx) 10 mg/kg) for 6 weeks. (B) HB-19 inhibits the growth of MDA-MB-435 tumor-cell xenografts. Cells (1×10^6) were injected in the mammary fat pad of female nude mice. Two weeks later, mice with a palpable tumor were randomly separated into three groups (n = 10) and were given intraperitoneal injections 3 times/week of 0.1 ml PBS alone (Control), HB-19 (5 mg/kg), or 5-fluouracil (5-FU, 40 mg/kg) for 8 weeks. At the end of each experiment (in A and B), mice were sacrificed and the tumors were excised and weighed. The results are presented as the mean weight ±standard deviation (±S.D.) obtained from the number of mice in each group. (C, D) Inhibition of tumor development in mice treated by intraperitoneal (i.p.) and subcutaneous (s.c.) administration of HB-19. MDA-MB-231 tumor bearing mice in three groups (n = 10) were treated with HB-19 (10 mg/kg) by i.p. or s.c. injections, 3 times/week for 28 days. […] Statistical significance: *p<0.05, **p<0.01, ***p<0.001.
Blood samples were collected by cardiac puncture. Hematocrit level, white blood cells and platelets count were determined individually in whole blood anticoagulated with EDTA (1 mM) at room temperature. Blood cell count was analyzed with an automated flow cytometric blood cell counter (Cell-Dyn 3500, Abbott Laboratories, Rungis, France).

For another data set, the system named is U87MG cells. Description: Colony formation in soft agar, U87MG. The data set is classed as cell-based, human. The settings on record: 5 µM HB-19, U87MG. Here is the method:
Figure 4 HB-19 inhibits colony formation in soft agar by tumor cell lines. (A) MDA-MB-231 cells in culture medium were seeded in triplicate in the absence (histogram C) or presence of 0.1, 0.5 and 1 of µM HB-19, or 0.1 µM of the anti-nucleolin mAb MS-3 or control IgG, or 10 µM bisphosphonate (BisP). (B) Various tumor cell lines (as indicated) in culture medium were seeded in triplicate in the absence (histogram Control) or presence of 5 µM HB-19. After 10–21 days, colonies with diameters greater than 50 µm were scored as positive. Statistical significance: *0.01<p<[…], **p<0.01, ***p<0.001.
Carcinoma cells (2×10^4) were mixed in 0.35% top agar, diluted in complete medium (DMEM containing 10% FBS) in the absence or presence of HB-19, and plated onto 0.8% bottom agar into 12-well plates. Cells were treated twice a week during 10 to 21 days. Colonies with diameters greater than 50 µm were scored as positive using a phase contrast microscope equipped with a measuring grid at magnification 100× [45]. The number of colonies was determined by analyzing 5 fields/well from 3 wells and the test was repeated at least twice.

The conditions of data set [3]: cited from earlier work. From the text: HB-19 treatment is not toxic in vitro and in vivo. The lack of translocation of HB-19 to the nucleus and nucleolus probably accounts for its lack of toxicity in cultured cells and in mice, since nuclear nucleolin is involved in many aspects of gene expression, [2]. […] In s ...

On to “pseudo-tripeptide Lysψ(CH2N)-Pro-Arg coupled to a template (H2NLys-Lys-Lys-Gly-Pro-Lys-Glu-Lys-AhxCONH2) [HB-19, pseudopeptide presenting pentavalently the pseudo-tripeptide Lysψ(CH2N)-Pro-Arg coupled to a template]”, for which the “inhibition of tumor vascularization” value in data set [1] is reported as “significantly inhibited tumor vascularization”. For the same substance, the “internalization and subcellular localization” value in the data set with MDA-MB-231 cells (37°C) was “internalized and is concentrated in the cytoplasm without translocation into the nucleus”. For the same substance, the “internalization at 20°C” value in the data set on MDA-MB-231 cells (20°C) is on record as “remains attached to the cell surface without entering the cytoplasm”. Moreover, the Eosinophils in data set [2] (HB-19 5 mg/kg or 5-FU 40 mg/kg i.p., mean ± SD, n = 10, untreated 0.01±0.02) is 0.03±0.04 ×10^3/µl. In data set [2] (HB-19 5 mg/kg or 5-FU 40 mg/kg i.p., mean ± SD, n = 10, untreated 0.10±0.06), the Basophils is on record as 0.09±0.04 ×10^3/µl. In data set [2] (HB-19 5 mg/kg or 5-FU 40 mg/kg i.p., mean ± SD, n = 10, untreated 0.20±0.09), the Monocytes is on record as 0.23±0.07 ×10^3/µl. Besides, the Neutrophils in data set [2] (HB-19 5 mg/kg or 5-FU 40 mg/kg i.p., mean ± SD, n = 10, untreated 0.89±0.39, 5-FU p<0.05) is listed as 1.03±0.44 ×10^3/µl. In addition, in data set [2] (HB-19 5 mg/kg or 5-FU 40 mg/kg i.p., mean ± SD, n = 10, untreated 1.84±0.78, 5-FU p<0.01), the Lymphocytes is listed as 1.98±1.01 ×10^3/µl. For the same substance, the Leukocytes in data set [2] (HB-19 5 mg/kg or 5-FU 40 mg/kg i.p., mean ± SD, n = 10, untreated 3.05±1.29, 5-FU p<0.05) is on record as 3.36±1.28 ×10^3/µl. Further, the Erythrocytes in data set [2] (HB-19 5 mg/kg or 5-FU 40 mg/kg i.p., mean ± SD, n = 10, untreated 8.73±0.26, 5-FU p<0.0001) was 8.31±1.05 ×10^6/µl. Besides, the Platelets in data set [2] (HB-19 5 mg/kg or 5-FU 40 mg/kg i.p., mean ± SD, n = 10, untreated 1041±91) is recorded as 1037± 225 ×10^3/µl. In addition, in data set [2] (HB-19 5 mg/kg, intraperitoneal), the “effect on number of platelets, erythrocytes and leukocytes” value is “no effect on the number of platelets, erythrocytes, and leukocytes”. For the same substance, the colony formation entry in the data set on U87MG cells is given as “reduced markedly”. Also, in data set [3] (a few minutes following intravenous injection), the “recovery in bone marrow” value is “a significant proportion of the peptide is recovered in the bone marrow”. Further, the tissue uptake result in data set [3] is listed as “there is a threshold for the tissue uptake of HB-19”. The persistence in tissue result in data set [3] (rats, 24 hours) is given as “a significant proportion still persists even after 24 hours in its active form”. In data set [3] (rats, systemic administration), the blood clearance result was “rapidly cleared from blood” and the tissue distribution result is “distributed selectively in tissues expressing enhanced levels of surface nucleolin”. Further, in data set [3] (rats), the “form of excreted radioactivity in urine” value was “most of the excreted radioactivity in the urine is in the form of HB-19 metabolites” and the route of elimination result is recorded as “eliminated gradually by renal glomerular filtration”.

The values above are taken from article PMC2424174, “Suppression of Tumor Growth and Angiogenesis by a Specific Antagonist of the Cell-Surface Expressed Nucleolin” (PLoS ONE, 2008).
